Data set [1] in a line: Pharmacokinetics of epothilone D in patients (plasma levels by LC/MS/MS after intravenous infusion). Format: in vivo, human. As for the experimental part: (§1) H1/H2 blockers were given orally to the subjects 30-60 minutes prior to infusion to prevent any adverse reactions to the CREMOPHOR® in the composition. […] Thus, a dosage of 9 mg/m^2 required about 10-15 minutes of infusing, while a dose of 150 mg/m^2 required 3-4 hours of dosing. The patients were monitored by testing CBC with differential weekly, various laboratory tests every three weeks, and physical exams including neurological assessment every three weeks. Tumor assessments were made every six weeks.
Both the pharmacokinetics and pharmacodynamics of epothilone D were measured in the subjects. Plasma concentration as a function of time was measured in the first- and second cycles at various dose levels in several subjects.
As would be expected, the levels at the end of infusion are high and taper off gradually, and the concentration levels at any particular time are dose-dependent.

For data set [2], the system named is microtubules in interphase cells (PBMC's). Put plainly: Microtubule bundle formation in mononuclear cells (PBMC's) isolated from treated patients, immunofluorescence. Format: in vivo, human. The source says: The activity of the drug can be assessed by measuring bundling of microtubules in interphase cells. This is considered the hallmark of activity of microtubule-stabilizing agents such as paclitaxel. The bundle formation can readily be measured by immunofluorescence or Western blotting. In a typical determination, whole blood is collected from patients and mononuclear cells (PBMC's) are isolated for evaluation of bundle formation.
In addition to monitoring toxicity and pharmacokinetics, the pharmacodynamics of treatment was also monitored. The standard criterion is the ability of the drug to effect bundling of microtubules in interphase cells. Whole blood was collected from patients and mononuclear cells (PBMC's) were isolated. To measure bundle formation, the PBMC's were resuspended in 5% FBS/PBS containing 0.75×10^6 cells/mL and used to make cytospin preparations. The cells were then fixed in 100% methanol for 10 minutes at […], air dried and stored at 4° C. prior to immunostaining. For immunostaining, the cells were blocked in 10% Normal Goat Serum in PBS for 20 minutes and incubated with a 1:100 dilution of {tilde over (□)}tubulin monoclonal antibody diluted in 5% Normal Goat Serum in PBS for 1 hour at 37° C. The slides were then rinsed in PBS and incubated with 1:200 Cy3-conjugated goat anti-mouse IgG for 1 hour in the dark before mounting. Cell numbers were quantified using a Zeiss AXIOSCOP microscope and evaluated at levels of 500 cells per slide by individual investigators.

The nature of data set [3]: Toxicity monitoring in the patient study. Format: in vivo, human. The source says:
In order to ensure that toxic limits are not exceeded, the effects of the administration on the subject are monitored. Possible effects include neurological impairment(s), which may manifest itself as cognitive/perceptual abnormalities, numbness in the limbs, difficulty in walking, dizziness, and the like. […] Other side effects may include nausea and vomiting, fatigue, rash, alopecia, and alteration in vital signs such as orthostatic hypotension.
H1/H2 blockers were given orally to the subjects 30-60 minutes prior to infusion to prevent any adverse reactions to the CREMOPHOR® in the composition. […] The patients were monitored by testing CBC with differential weekly, various laboratory tests every three weeks, and physical exams including neurological assessment every three weeks. Tumor assessments were made every six weeks.

The subject of data set [4] is advanced malignancy, either primary or metastatic. Put plainly: Tumor assessment / tumor markers in patients with advanced malignancy. Format: in vivo, human.
From the text: Other criteria included adequate liver, renal and hematopoietic function, i.e., recovery from reversible effects of previous therapies, if any. Subjects included in the study provided their informed consent.
Approximately 52 patients meeting the above-described criteria were enrolled in the study. Of the patients treated, approximately 60% were male and 40% female, ranging in age from 23 to 85 years. A wide range of tumor types were included in the study, including colon, ovarian, prostate, and lung tumors. Most of the enrollees had received multiple rounds of other chemotherapies prior to entering the study.
as §1

For data set [5] the following is noted: paclitaxel comparison value; cited from earlier work.

Entries after “also recorded” stand apart in the source; their conditions may differ. Where two headings read alike, the source gives them in different places.

For the compound `C/C1=C/C[C@@H](/C(C)=C/c2csc(C)n2)OC(=O)C[C@H](O)C(C)(C)C(=O)[C@H](C)[C@@H](O)[C@@H](C)CCC1` [epothilone D, Desoxyepothilone B], the “dependence of the area under the curve (AUC) on dosage” value in data set [1] (dose range about 9 mg/m^2 to about 150 mg/m^2, first and second cycles) is recorded as “linear correlation”. Besides, the half-life in data set [1] (human, in vivo, intravenous infusion, summary over study, read-out: half-life, mean value) was 8 to 10 h; in data set [1] (human, in vivo, patients treated at 100 mg/m^2, averaged, read-out: elimination half-life (converted)) it was 8.8 ± 2.4 h. In addition, the clearance in data set [1] (human, in vivo, patients treated at 100 mg/m^2, averaged, read-out: Drug clearance (converted)) was 315 mL/min. For the same compound, the Vd in data set [1] (human, in vivo, patients treated at 100 mg/m^2, averaged, read-out: volume of distribution (Vz)) is 232 ± 82 L. Besides, the “difference in pharmacokinetics between cycles” value in data set [1] (two cycles, three subjects at 60 mg/m^2) was “no discernable difference”. For the same compound, the “percentage of PBMCs with microtubule bundles” value in data set [2] (dosage 18 mg/m^2) is 12%; in data set [2] (dosage 120 mg/m^2), 55%. Further, the “bundle formation at low dosage” value in data set [2] (dosage as low as 18 mg/m^2) is “Substantial amounts of bundle formation”. Besides, in data set [3] (dose level between 9 mg and about 60 mg per m^2), the time of toxicity result is “start at day five and continue to day 15”. In addition, the severity of toxicities result in data set [3] (dose-dependent toxicities) is “generally of Grade-2 in severity”. For the same compound, the onset of toxicity entry in data set [3] (higher dosages such as 90 mg/m^2 and […]^2) was “as soon as the day after infusion is terminated”. Besides, in data set [3] (human, in vivo), the myelosuppression result is “generally not been seen; also recorded: No clear evidence of myelosuppression was observed”. Further, the “disease status in patients receiving multiple cycles (at least four months)” value in data set [4] (human, in vivo) is on record as “suggestive of stable disease”. Further, the tumor markers result in data set [4] (ovarian, pancreatic, testicular, breast, and biliary diseases) was “Tumor marker reductions were observed”.
With `CC(=O)O[C@H]1C(=O)[C@@]2(C)[C@H]([C@H](OC(=O)c3ccccc3)[C@]3(O)C[C@H](OC(=O)[C@H](O)[C@@H](NC(=O)c4ccccc4)c4ccccc4)C(C)=C1C3(C)C)[C@]1(OC(C)=O)CO[C@@H]1C[C@@H]2O` [paclitaxel], the “volume of distribution (Vz)” value in data set [5] is 140±70 L/m^2.

Usually half-life stands for how long it takes for the measured level to halve. For orientation: clearance means the volume of plasma or blood freed of the substance per unit of time.

Source of the values: patent publication US20040072882A1 (priority 2002, published 2004).
